Data as given in US20220323406A1, “METHODS AND COMPOSITIONS FOR DIFFERENTIATING STEM CELLS” (Massachusetts Institute of Technology, priority 2019, published 2022).

Assays:
[1] = test system: ENR+CD organoids (ISC to Paneth cell differentiation); assay: Primary screen: CCh-stimulated lysozyme secretion LYZ.S, 2.5-D 384-well ENR+CD organoid differentiation; type: cell-based, mouse; details: primary screen
Description: (§1) High-throughput screening.

ENR+CD organoids = assay: Primary screen: ATP (CellTiter-Glo 3D, CTG) cell number/viability, 2.5-D 384-well ENR+CD organoids; details: primary screen;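 also: compounds given at plating and again on day 3 over a 6-day differentiation from ENR+CV stem-cell-enriched precursors, ATP measured on day 6, plate median as control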
[2] = test system: ENR+CD organoids (ISC to Paneth cell differentiation); assay: Primary screen: basal (non-stimulated) lysozyme secretion LYZ.NS, 2.5-D 384-well ENR+CD organoid differentiation; type: cell-based, mouse; details: primary screen; for Z.LYZ.NS: standard z score
Description: as §1

[3] = dose 0.08 uM, FC vs plate median
[4] = dose 0.40 uM, FC vs plate median
[5] = dose 2.00 uM, FC vs plate median
[6] = dose 10.00 uM, FC vs plate median

Compound | Dose.FC.LYZ.S [1, 3] [log2 fold change] | Dose.FC.LYZ.S [1, 4] [log2 fold change] | Dose.FC.LYZ.S [1, 5] [log2 fold change] | Dose.FC.LYZ.S [1, 6] [log2 fold change] | Dose.FC.CTG (ENR+CD organoids; [3]) [log2 fold change] | Dose.FC.CTG (ENR+CD organoids; [4]) [log2 fold change] | Dose.FC.CTG (ENR+CD organoids; [5]) [log2 fold change] | Dose.FC.CTG (ENR+CD organoids; [6]) [log2 fold change] | Z.LYZ.NS ([2]; dose 0.08 uM) | Z.LYZ.NS ([2]; dose 0.40 uM) | Z.LYZ.NS ([2]; dose 2.00 uM) | Z.LYZ.NS ([2]; dose 10.00 uM) | Dose.FC.LYZ.NS [2, 3] [log2 fold change] | Dose.FC.LYZ.NS [2, 4] [log2 fold change] | Dose.FC.LYZ.NS [2, 5] [log2 fold change] | Dose.FC.LYZ.NS [2, 6] [log2 fold change] | Z.CTG (standard z score) (ENR+CD organoids; dose 0.08 uM) | Z.CTG (standard z score) (ENR+CD organoids; dose 0.40 uM) | Z.CTG (standard z score) (ENR+CD organoids; dose 2.00 uM) | Z.CTG (standard z score) (ENR+CD organoids; dose 10.00 uM) | also measured
Cc1ccccc1C(=O)Nc1ccc(C(=O)N2CCCC(N(C)C)c3ccccc32)cc1 (stereo not drawn) [Mozavaptan] | 0.086 | 0.165 | 0.106 | −0.270 | 0.320 | 0.235 | 0.108 | −0.336 | 0.584 | −0.233 | 0.294 | −1.752 | 0.067 | −0.027 | 0.034 | −0.201 |  |  |  |  | 
COC(=O)C1=C(C#N)NC(C)=C(C(=O)OC(C)C)C1c1cccc([N+](=O)[O-])c1 (stereo not drawn) [Nilvadipine] | 0.088 | 0.013 | 0.071 | −0.008 | 0.206 | 0.135 | 0.212 | 0.192 | 0.857 | 0.034 | 0.500 | 0.082 | 0.098 | 0.004 | 0.057 | 0.009 |  |  |  |  | 
CCn1c(-c2nonc2N)nc2c(C#CC(C)(C)O)ncc(OC[C@H]3CCCNC3)c21 [GSK690693] |  |  |  |  |  |  |  |  |  |  |  |  |  |  |  |  | 0.308 | 0.470 | −0.064 | −0.434 | Dose.FC.LYZ.S (log2 fold change) ([1]; dose 0.08 uM): 0.019; Dose.FC.LYZ.S (log2 fold change) ([1]; dose 0.40 uM): 0.155; Dose.FC.LYZ.S (log2 fold change) ([1]; dose 2.00 uM): 0.124; Dose.FC.LYZ.S (log2 fold change) ([1]; dose 10.00 uM): −0.153; Dose.FC.CTG (log2 fold change) (ENR+CD organoids; dose 0.08 uM): 0.129; Dose.FC.CTG (log2 fold change) (ENR+CD organoids; dose 0.40 uM): 0.197; Dose.FC.CTG (log2 fold change) (ENR+CD organoids; dose 2.00 uM): −0.027; Dose.FC.CTG (log2 fold change) (ENR+CD organoids; dose 10.00 uM): −0.182; Dose.FC.LYZ.NS (log2 fold change) ([2]; dose 0.08 uM): 0.045; Z.LYZ.NS (standard z score) ([2]; dose 0.08 uM): 0.388; Dose.FC.LYZ.NS (log2 fold change) ([2]; dose 0.40 uM): 0.047; Z.LYZ.NS (standard z score) ([2]; dose 0.40 uM): 0.409; Dose.FC.LYZ.NS (log2 fold change) ([2]; dose 2.00 uM): 0.122; Z.LYZ.NS (standard z score) ([2]; dose 2.00 uM): 1.060; Dose.FC.LYZ.NS (log2 fold change) ([2]; dose 10.00 uM): −0.080; Z.LYZ.NS (standard z score) ([2]; dose 10.00 uM): −0.698
O=C(NCc1ccccc1)c1csc(Nc2ccncn2)n1 [Thiazovivin] |  |  |  |  |  |  |  |  |  |  |  |  |  |  |  |  | 0.337 | 0.271 | 0.746 | 0.451 | Dose.FC.LYZ.S ([1]; dose 0.08 uM): 0.142 log2 fold change; Dose.FC.LYZ.S ([1]; dose 0.40 uM): 0.060 log2 fold change; Dose.FC.LYZ.S ([1]; dose 2.00 uM): 0.064 log2 fold change; Dose.FC.LYZ.S ([1]; dose 10.00 uM): 0.037 log2 fold change; Dose.FC.CTG (ENR+CD organoids; dose 0.08 uM): 0.141 log2 fold change; Dose.FC.CTG (ENR+CD organoids; dose 0.40 uM): 0.113 log2 fold change; Dose.FC.CTG (ENR+CD organoids; dose 2.00 uM): 0.312 log2 fold change; Dose.FC.CTG (ENR+CD organoids; dose 10.00 uM): 0.189 log2 fold change; Dose.FC.LYZ.NS ([2]; dose 0.08 uM): 0.090 log2 fold change; Z.LYZ.NS (standard z score) ([2]; dose 0.08 uM): 0.780; Dose.FC.LYZ.NS ([2]; dose 0.40 uM): 0.070 log2 fold change; Z.LYZ.NS (standard z score) ([2]; dose 0.40 uM): 0.611; Dose.FC.LYZ.NS ([2]; dose 2.00 uM): 0.024 log2 fold change; Z.LYZ.NS (standard z score) ([2]; dose 2.00 uM): 0.205; Dose.FC.LYZ.NS ([2]; dose 10.00 uM): −0.069 log2 fold change; Z.LYZ.NS (standard z score) ([2]; dose 10.00 uM): −0.605
